Test results taken from PubChem BioAssay (NCI).
Values joined by “and” are separate entries in the source; they are usually repeats but may differ in a detail not shown here. Equal values may be shown once.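 Compound exposure: 48 hours, 5 concentrations, 96-well plates. The concentration for 50% growth inhibition is given as GI50. The concentration for full growth arrest is given as TGI.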

Legend:
Experiment in all cases: DTP human tumour cell line panel, 48 h
SF-295 CNS = tested on: SF-295 CNS
COLO 205 colon = tested on: COLO 205 colon
SN12C renal = tested on: SN12C renal
M14 melanoma = tested on: M14 melanoma
DU-145 prostate = tested on: DU-145 prostate
T-47D breast = tested on: T-47D breast
OVCAR-5 ovarian = tested on: OVCAR-5 ovarian
SNB-78 CNS = tested on: SNB-78 CNS
PC-3 prostate = tested on: PC-3 prostate
LXFL 529 NSCLC = tested on: LXFL 529 NSCLC

SMILES | TGI (SF-295 CNS) | GI50 (COLO 205 colon) | TGI (COLO 205 colon) | GI50 (SN12C renal) | TGI (SN12C renal) | GI50 (M14 melanoma) | TGI (M14 melanoma) | TGI (DU-145 prostate) [µM] | TGI (T-47D breast) [µM] | GI50 (OVCAR-5 ovarian) [µM] | TGI (OVCAR-5 ovarian) | TGI (SNB-78 CNS) [µM] | TGI (PC-3 prostate) [µM] | TGI (LXFL 529 NSCLC) [µM] | GI50 (SF-295 CNS) | GI50 (DU-145 prostate) [µM] | GI50 (LXFL 529 NSCLC)
CCCCNCCCNCCCNC(=O)c1csc(-c2csc(CCNC(=O)C(NC(=O)C(C)C(O)C(C)NC(=O)C(NC(=O)c3nc(C(CC(N)=O)NCC(N)C(N)=O)nc(N)c3C)C(OC3OC(CO)C(O)C(O)C3OC3OC(CO)C(O)C(OC(N)=O)C3O)c3cnc[nH]3)C(C)O)n2)n1 (configuration not stated) | 1.76 µM | 26.6 µM | 50 µM and > 89.1 µM | 1.13 µM | 50 µM and 8.53 µM | 34.3 µM | 50 µM and 15.9 µM | 50 | 50 | 5.86 | 50 µM and > 44.5 µM | > 100 | 50 | > 100 |  |  | 
CC(C)=CCC1=C(O)c2ccccc2C(=O)C1=O | > 100 µM | 18.4 µM and 52.3 µM and 28.8 µM | 37.5 µM and > 100 µM | > 100 µM and 31.3 µM | > 100 µM | > 100 µM and 45.8 µM and 16.3 µM | > 100 µM | > 100 | > 100 | 56.2 | > 100 µM | > 100 | > 100 | > 100 | > 100 µM and 22.7 µM | 23.5 | > 100 µM and 16.2 µM
COc1cc(OC)c(OC)cc1/C=N/NC(=O)N/N=C/c1cc(OC)c(OC)cc1OC | > 100 µM |  | > 100 µM |  | > 100 µM |  | > 100 µM |  |  |  | > 100 µM | > 100 |  | > 100 |  |  | 
CC12c3ccccc3C(OC=O)(c3ccccc31)C1(C)c3ccccc3C2(OC=O)c2ccccc21 | > 100 µM |  | > 100 µM |  | > 100 µM |  | > 100 µM |  |  |  | > 100 µM | > 100 |  | > 100 |  |  | 
COc1ccc(/C=C\c2cc(OC)c(OC)c(OC)c2)cc1OCC(=O)O | 35.8 µM |  | > 100 µM |  | > 100 µM |  | 62.9 µM | 47.2 | > 100 |  | > 100 µM | > 100 | > 91.3 | > 100 |  |  | 
O=C1c2cccc3cccc(c23)C(=O)N1CCN(CCO)CCO | > 100 µM |  | 30.2 µM |  | 74.3 µM |  | 46.8 µM |  |  |  | 49.1 µM | > 100 |  | > 100 |  |  | 
COc1ccc2c(=O)oc3c(OC)cc(CCN(C)C)c4c(=O)oc1c2c34 | 28.5 µM and 14.3 µM |  | 17.4 µM and 22.1 µM |  | 27.7 µM and 15.6 µM |  | 31.2 µM and 18.2 µM | 15.8 | 18 |  | 31.9 µM and 22.3 µM | 35.9 | 29.4 | 26 | 15 µM and 6.99 µM |  | 
O/N=C1\CCCCC1C(NO)c1ccccc1 (configuration not stated) | > 100 µM |  | > 100 µM |  | > 100 µM |  | > 100 µM |  |  |  | > 100 µM | > 100 |  | > 100 |  |  | 
Cc1cc2c(cc1C)[n+](=O)cc(C(=O)C/C(=N/NC(=S)NN)C(=O)Nc1cccc(C(F)(F)F)c1)n2[O-] | > 100 µM |  | > 100 µM |  | > 100 µM |  | > 100 µM |  |  |  | > 100 µM | > 100 |  | > 100 |  |  | 
O=S(=O)(OI(OI(OS(=O)(=O)C(F)(F)F)c1ccccc1)c1ccccc1)C(F)(F)F | > 100 µM |  | > 100 µM |  | > 100 µM |  | > 100 µM |  |  |  | > 100 µM | > 100 |  | > 100 |  |  | 
O=C1C=C(Nc2ccc(Cl)cc2C(=O)c2ccccc2)c2ccccc2C1=O | > 100 µM |  | > 100 µM |  | > 100 µM |  | > 100 µM |  |  |  | > 100 µM | > 100 |  | > 100 |  |  | 
CC[C@@H]1NC(C(=O)OC)Cc2c1[nH]c1ccccc21 (some centres not stated) | > 100 µM |  | > 100 µM |  | > 100 µM |  | > 100 µM |  |  |  | > 100 µM | > 100 |  | > 100 |  |  | 
O=Cc1cc2c(cc1-c1cc3c(cc1C=O)OCO3)OCO2 | > 100 µM |  | > 100 µM |  | > 100 µM |  | > 100 µM |  |  |  | > 100 µM | > 100 |  | > 100 |  |  | 
O=C1C=C(c2c(O)ccc3ccccc23)c2cc(O)ccc2C1=O | 34.9 µM |  | 40 µM |  | 32.4 µM |  | 29.9 µM |  |  |  | 35.5 µM | 42.5 |  | 19.5 |  |  | 
